{"source": "paper PMC11971462", "about": "“Generation and validation of a novel multitarget small molecule in glioblastoma” (Cell Death & Disease, 2025)", "key": {"glioma cells": {"test_system": "glioma cells", "assay": "MTT cell viability, summary for glioma cells", "format": "cell-based", "conditions": "Homo sapiens, 72 h, summary statement, read-out: IC50 cell viability in different glioma cells", "description": "(§1) MTT assay was used to study cell viability. For that, cells were seeded at a density of 1.5 × 10^3 cells/well in 96-well plates, incubated overnight and then treated with increasing concentrations of DDI199. After 72 h of treatment, MTT absorbance was measured at 570 nm. GraphPad Prism software was used to analyze results and calculate IC50 values."}, "HDAC6": {"target": "HDAC6 (Homo sapiens, UniProt Q9UBN7)", "sequence (Q9UBN7 whole entry)": "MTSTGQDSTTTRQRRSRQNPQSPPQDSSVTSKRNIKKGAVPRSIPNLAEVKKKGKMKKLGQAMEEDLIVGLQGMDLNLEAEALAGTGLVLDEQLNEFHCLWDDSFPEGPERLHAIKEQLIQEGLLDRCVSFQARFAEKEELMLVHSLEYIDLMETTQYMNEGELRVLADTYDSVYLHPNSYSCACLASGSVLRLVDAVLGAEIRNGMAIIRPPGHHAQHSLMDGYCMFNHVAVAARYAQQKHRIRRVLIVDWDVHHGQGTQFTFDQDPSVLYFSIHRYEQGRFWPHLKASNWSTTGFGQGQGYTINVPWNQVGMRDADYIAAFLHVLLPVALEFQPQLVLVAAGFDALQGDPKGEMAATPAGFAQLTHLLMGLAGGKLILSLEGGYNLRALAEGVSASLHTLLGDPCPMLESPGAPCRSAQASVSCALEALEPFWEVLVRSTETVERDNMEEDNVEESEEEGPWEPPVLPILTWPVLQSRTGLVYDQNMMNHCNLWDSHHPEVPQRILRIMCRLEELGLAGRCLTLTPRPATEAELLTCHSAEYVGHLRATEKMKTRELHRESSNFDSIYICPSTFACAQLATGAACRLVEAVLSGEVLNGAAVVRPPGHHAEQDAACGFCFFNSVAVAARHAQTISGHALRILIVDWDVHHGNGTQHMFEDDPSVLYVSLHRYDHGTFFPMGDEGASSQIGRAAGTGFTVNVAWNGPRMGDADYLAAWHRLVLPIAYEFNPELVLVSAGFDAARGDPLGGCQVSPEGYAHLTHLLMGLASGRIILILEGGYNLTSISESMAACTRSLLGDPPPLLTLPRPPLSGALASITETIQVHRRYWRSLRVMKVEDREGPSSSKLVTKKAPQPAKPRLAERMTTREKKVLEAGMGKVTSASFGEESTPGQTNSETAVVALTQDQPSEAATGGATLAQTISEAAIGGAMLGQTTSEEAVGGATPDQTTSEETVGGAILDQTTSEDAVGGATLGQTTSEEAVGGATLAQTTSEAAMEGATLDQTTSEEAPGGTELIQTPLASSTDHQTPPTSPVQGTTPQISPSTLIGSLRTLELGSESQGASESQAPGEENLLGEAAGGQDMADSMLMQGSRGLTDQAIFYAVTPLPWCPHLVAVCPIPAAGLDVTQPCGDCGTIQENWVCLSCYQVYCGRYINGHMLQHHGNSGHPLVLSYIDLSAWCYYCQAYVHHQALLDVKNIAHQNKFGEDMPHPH", "assay": "HDAC6 enzyme inhibition", "format": "biochemical", "conditions": "read-out: HDAC inhibition IC50 HDAC6", "description": "The inhibitory capacity of DDI199 on HDACs was studied as previously described. The capacity of DDI199 to inhibit MAOs was studied by mimicking the reaction occurring in cells. Briefly, inhibitor solution containing 10 µM of DDI199 or reference compound was incubated for 30 minutes at 37 °C together with the enzyme solution, containing either recombinant hMAO-A (Sigma-Aldrich) at 0.5 U/mL or hMAO-B (Sigma-Aldrich) at 1.5 U/mL. 200 U/mL horseradish peroxidase (Sigma-Aldrich), 20 mM Ampliflu Red (Sigma-Aldrich) and 100 mM tyramine hydrochloride (Sigma-Aldrich) were then added and absorbance at 570 nm was measured every 5 minutes for 30 minutes. Percentage of inhibition was estimated from these values."}, "patient-derived GSCs": {"test_system": "patient-derived GSCs", "assay": "MTT cell viability, summary for patient-derived GSCs", "format": "cell-based", "conditions": "Homo sapiens, 72 h, summary statement", "description": "as §1"}, "U87-MG tumor cells": {"test_system": "U87-MG tumor cells", "assay": "Oncosphere formation from disaggregated treated tumors", "format": "cell-based", "description": "For oncosphere formation assay, cells were cultured in non-treated 48-well plates in DMEM/F12 medium supplemented with EGF and FGF and fresh media was added every 2 days. After 7 days, oncosphere formation was documented and the number of spheres was quantified using Qupath.\nFor tumor growth experiments, 5 × 10^5 U87-MG cells were subcutaneously injected into two bottom flanks of athymic nude-Foxn1^nu mice, and once tumors reached a size of 25-50 mm^3, mice were sorted into groups taking into account gender and tumor size. Afterwards, mice were intratumorally treated with vehicle, SAHA 100 µM or DDI199 100 µM following a schedule of 5 days on and 2 days off. In combined treatment, mice were treated intraperitoneally with 0.5 mg/Kg of TMZ for 5 days and intratumorally following a schedule of 5 days on and 2 days off with vehicle, SAHA 100 µM or DDI199 100 µM. After 4 weeks of treatment, some mice were kept for washout experiment, while the rest were sacrificed and tumors were extracted for immunohistochemistry and to disaggregate for reinjection and oncosphere formation studies. For reinjection assays, 1.5 × 10^5 cells were subcutaneously injected and tumor size was periodically measured. Once tumors reached end-point criteria, they were extracted for immunohistochemical analysis. […]"}, "GNS166 cells [1]": {"test_system": "GNS166 cells", "assay": "q-RTPCR of selected DEGs", "format": "cell-based, human", "conditions": "GNS166 treated versus non-treated", "description": "Total RNA was extracted using Trizol (Life Thechnologies). Reverse transcription was then performed with the Maxima First Strand cDNA Synthesis Kit (ThermoFisher), following manufacturer’s guidelines. Quantitative real-time PCR was carried out in a CFX384 Thermal Cycler (BioRad) by Absolute SYBR Green mix (ThermoFisher). GAPDH was used as housekeeping gene for the correction of variations on initial cDNA levels, and relative gene expression was determined using the 2^-ΔΔCt formula."}, "GNS166 cells [2]": {"test_system": "GNS166 cells", "assay": "Immunofluorescence of pH3, Cleaved Caspase 3, Ki67, PARP1", "format": "cell-based, human", "conditions": "for pH3-positive cells: control 3%", "description": "(§2) Immunofluorescence assays were performed following standard procedures. Cells were seeded at a density of 2 × 10^4 cells/well in 8-well immunofluorescence chambers (LabTek Thermo) and incubated overnight before treating with increasing concentrations of DDI199. After 48 h, cells were fixed with 4% PFA. Primary antibodies against phosphohistone H3 (pH3) (ab14955, abcam), Cleaved Caspase 3 (AF385, R&D Systems), Ki67 (ab15580, abcam) and PARP1 (ab32064, abcam) were used. Secondary antibodies were Alexa Fluor anti-mouse (A21422, Invitrogen) and Alexa Fluor anti-rabbit (A31572, Invitrogen), and chromatin was stained with DAPI (D9541, Sigma-Aldrich). Axio Observer 7 epifluorescence microscope was used to take pictures, which were later quantified in Qupath."}, "GNS166 cells [3]": {"test_system": "GNS166 cells", "assay": "EdU cell proliferation assay", "format": "cell-based, human", "conditions": "GNS166, 5 µM", "description": "Click-iT™ EdU Cell Proliferation Kit for Imaging (Invitrogen) was used according to the manufacturer’s instructions. Briefly, GNS166 cells were seeded and maintained overnight before DDI199 treatment. After 48 h, fresh culture medium containing 10 μM of EdU was added for 24 h and then, cells were fixed with 4% paraformaldehyde. Axio Observer 7 epifluorescence microscope was used to take pictures, which were later quantified in Qupath."}, "U87-MG and U251-MG cells": {"test_system": "U87-MG and U251-MG cells", "assay": "Immunofluorescence of pH3 and Cleaved Caspase-3", "format": "cell-based, human", "conditions": "U87-MG and U251-MG, 1, 5 and 10 μM", "description": "as §2"}, "[4]": {"test_system": "GNS166 patient-derived glioma stem cells", "assay": "MTT cell viability", "format": "cell-based", "conditions": "Homo sapiens, 72 h", "description": "as §1"}, "[5]": {"test_system": "pancreatic cell line RWP1", "assay": "MTT cell viability", "format": "cell-based", "conditions": "Homo sapiens, 72 h", "description": "as §1"}, "[6]": {"test_system": "gastric cancer MKN45 cells", "assay": "MTT cell viability", "format": "cell-based", "conditions": "Homo sapiens, MKN-45, 72 h", "description": "as §1"}, "U87-MG glioma cells": {"test_system": "U87-MG glioma cells", "assay": "MTT cell viability", "format": "cell-based", "conditions": "Homo sapiens, U-87 MG, 72 h", "description": "as §1"}, "[7]": {"test_system": "GNS179 patient-derived glioma stem cells", "assay": "MTT cell viability", "format": "cell-based", "conditions": "Homo sapiens, 72 h", "description": "as §1"}, "[8]": {"test_system": "lung cancer NCI-H1299 cells", "assay": "MTT cell viability", "format": "cell-based", "conditions": "Homo sapiens, 72 h", "description": "as §1"}, "[9]": {"test_system": "Normal Human Astrocytes (NHA)", "assay": "MTT cell viability", "format": "cell-based", "conditions": "Astrocyte, 72 h", "description": "as §1"}, "U251-MG glioma cells": {"test_system": "U251-MG glioma cells", "assay": "MTT cell viability", "format": "cell-based", "conditions": "Homo sapiens, U-251, 72 h", "description": "as §1"}}, "note": "Values joined by “and” are separate entries in the source; they are usually repeats but may differ in a detail not shown here. Equal entries are not always repeated."}
{"smiles": "C#CCN(Cc1cc2cc(OCCCN3CCCCC3)ccc2n1S(=O)(=O)c1ccccc1)C(=O)CCCCCCC(=O)NO", "note": "[DDI199]", "values": [{"measurement": "IC50", "setting": "glioma cells", "value": "< 5", "unit": "µM"}, {"measurement": "IC50", "setting": "HDAC6", "value": "0.095 µM and 0.09 µM"}, {"measurement": "IC50", "setting": "patient-derived GSCs", "value": "5 to 13", "unit": "µM"}, {"measurement": "Oncospheres formed by cells from treated tumors", "setting": "U87-MG tumor cells; GSC medium, 7 days", "value": "fewer oncospheres"}, {"measurement": "Oncospheres from treated tumors, combined with TMZ", "setting": "U87-MG tumor cells; TMZ plus DDI199 versus control and TMZ-treated cells", "value": "significantly lower number of oncospheres"}, {"measurement": "Expression of genes associated to neurotransmission/synapsis (q-RTPCR)", "setting": "GNS166 cells [1]", "value": "significantly higher"}, {"measurement": "Expression of genes associated with cell cycle and DNA remodeling (q-RTPCR)", "setting": "GNS166 cells [1]", "value": "significantly reduced"}, {"measurement": "pH3-positive cells", "setting": "GNS166 cells [2]; GNS166, 1 µM", "value": 2, "unit": "%"}, {"measurement": "Ki67 positive cells", "setting": "GNS166 cells [2]; GNS166, 5 µM", "value": "almost blocking completely"}, {"measurement": "pH3-positive cells", "setting": "GNS166 cells [2]; GNS166, 5 µM", "value": 0.6, "unit": "%"}, {"measurement": "pH3-positive cells", "setting": "GNS166 cells [2]; GNS166, 10 µM", "value": 0.1, "unit": "%"}, {"measurement": "Cleaved Caspase-3-positive cells", "setting": "GNS166 cells [2]; GNS166, 1, 5 and 10 µM", "value": "increase"}, {"measurement": "PARP-positive cells", "setting": "GNS166 cells [2]; GNS166, 1, 5 and 10 µM", "value": "dose-dependent induction of apoptosis"}, {"measurement": "EdU positive cells", "setting": "GNS166 cells [3]", "value": "almost blocking completely"}, {"measurement": "Caspase-3 positive cells", "setting": "U87-MG and U251-MG cells", "value": "markedly increased"}, {"measurement": "p-H3 positive cells", "setting": "U87-MG and U251-MG cells", "value": "reduced"}, {"measurement": "IC50", "setting": "[4]", "value": 13, "unit": "µM"}, {"measurement": "IC50", "setting": "[5]", "value": 0.88, "unit": "µM"}, {"measurement": "IC50", "setting": "[6]", "value": 2.61, "unit": "µM"}, {"measurement": "IC50", "setting": "U87-MG glioma cells", "value": 3.23, "unit": "µM"}, {"measurement": "IC50", "setting": "[7]", "value": 5.28, "unit": "µM"}, {"measurement": "IC50", "setting": "[8]", "value": 3.33, "unit": "µM"}, {"measurement": "IC50", "setting": "[9]", "value": 7, "unit": "µM"}, {"measurement": "IC50", "setting": "U251-MG glioma cells", "value": 5.45, "unit": "µM"}]}
